Source: the supplement of paper PMC5579334

Key:
HS-PSS [1] = test: drug sensitivity score (DSS, CellTox-Green cytotoxicity, 72 h) (DSS (dimensionless)); higher = more cytotoxic; extreme values may be limits of the assay
Outline: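 For 72 h at 37 °C, MPNST cell lines and primary human Schwann cells were exposed in 384-well plates to five 10-fold compound dilutions. CellTox-Green, added before seeding at a final 1:1000 dilution, gave fluorescence from DNA released by disrupted cells. Signals were scaled to vehicle and positive-control wells, cultures failing plate quality control were left out, and four-parameter logistic fits were applied. Relative IC50 and drug sensitivity score were derived from the fits, with IC50 censored at the top concentration.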

HS-PSS [2] = test: % inhibition of CellTiter-Glo viability at highest tested concentration (72 h), relative to DMSO and benzethonium chloride controls; higher = more inhibition
Outline: (§1)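 After seeding 750–1000 cells per well of MPNST cell lines or primary human Schwann cells into 384-well plates preprinted with each compound at five concentrations in 10-fold steps, plates were kept 72 h at 37 °C, 5% CO2. Viability was read as CellTiter-Glo ATP luminescence relative to vehicle and positive-control wells, with duplicates averaged where present. The data were fitted with four-parameter logistic models. Drug sensitivity score and relative IC50, censored at the top concentration, derive from the fits, and percent inhibition refers to the top concentration.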

YST-1 [3] = test: as above
Outline: as §1

HS-Sch-2 [4] = test: as above
Outline: as §1

HS-PSS [5] = test: drug sensitivity score (DSS, CellTiter-Glo viability, 72 h) (DSS (dimensionless)); higher = more sensitive; extreme values may be limits of the assay
Outline: as §1

YST-1 [6] = test: as above
Outline: as §1

HS-Sch-2 [7] = test: as above
Outline: as §1

## CN(c1ncccc1CNc1nc(Nc2ccc3c(c2)CC(=O)N3)ncc1C(F)(F)F)S(C)(=O)=O (max concentration tested 10000 nM)
HS-PSS [1]
  drug sensitivity score: 0.03
HS-PSS [2]
  % inhibition: 73.3%
YST-1 [3]
  % inhibition: 98.6%
HS-Sch-2 [4]
  % inhibition: 99.2%
HS-PSS [5]
  drug sensitivity score: 3.86
YST-1 [6]
  drug sensitivity score: 7.85
HS-Sch-2 [7]
  drug sensitivity score: 5.18

## CNc1nc(-c2ccc3c(N)n[nH]c3c2)cc(N2C[C@@H](C(=O)NC3CCCCC3)CC[C@H]2C)n1 (max concentration tested 10000 nM)
HS-PSS [1]
  drug sensitivity score: 0
HS-PSS [2]
  % inhibition: 27.7%
YST-1 [3]
  % inhibition: 54%
HS-Sch-2 [4]
  % inhibition: 14.3%
HS-PSS [5]
  drug sensitivity score: 1.2
YST-1 [6]
  drug sensitivity score: 7.15
HS-Sch-2 [7]
  drug sensitivity score: 0.1

## CNc1ncc2cc(-c3cc(NC(=O)NCCC(C)(C)C)c(F)cc3C)c(C)nc2n1 (max concentration tested 10000 nM)
HS-PSS [1]
  drug sensitivity score: 0.82
HS-PSS [2]
  % inhibition: 69.1%
YST-1 [3]
  % inhibition: 46.5%
HS-Sch-2 [4]
  % inhibition: 55.9%
HS-PSS [5]
  drug sensitivity score: 3.13
YST-1 [6]
  drug sensitivity score: 6.37
HS-Sch-2 [7]
  drug sensitivity score: 10.8

## COCC(=O)NC/C=C/c1ccc2ncnc(Nc3ccc(Oc4ccc(C)nc4)c(C)c3)c2c1 (max concentration tested 10000 nM)
HS-PSS [1]
  drug sensitivity score: 0
HS-PSS [2]
  % inhibition: 56.7%
YST-1 [3]
  % inhibition: 19.9%
HS-Sch-2 [4]
  % inhibition: 32.2%
HS-PSS [5]
  drug sensitivity score: 5.3
YST-1 [6]
  drug sensitivity score: 0.62
HS-Sch-2 [7]
  drug sensitivity score: 3.05

## COc1cc2ncnc(Oc3cccc(NC(=O)Nc4cc(C(C)(C)C(F)(F)F)on4)c3)c2cc1OC (max concentration tested 10000 nM)
HS-PSS [1]
  drug sensitivity score: 0
HS-PSS [2]
  % inhibition: 3.34%
YST-1 [3]
  % inhibition: 3.62%
HS-Sch-2 [4]
  % inhibition: -3.7%
HS-PSS [5]
  drug sensitivity score: 0
YST-1 [6]
  drug sensitivity score: 0.17
HS-Sch-2 [7]
  drug sensitivity score: 0

## COc1ccc(Cn2ccc3ccc(C(=O)NO)cc32)cc1 (max concentration tested 10000 nM)
HS-PSS [1]
  drug sensitivity score: 0
HS-PSS [2]
  % inhibition: 18.1%
YST-1 [3]
  % inhibition: 56.2%
HS-Sch-2 [4]
  % inhibition: 46.8%
HS-PSS [5]
  drug sensitivity score: 0.33
YST-1 [6]
  drug sensitivity score: 5.14
HS-Sch-2 [7]
  drug sensitivity score: 2.02

## CS(=O)(=O)N1CCc2c(-c3cnc(N)nc3)nc(N3CCOCC3)nc21 (max concentration tested 10000 nM)
HS-PSS [1]
  drug sensitivity score: 0
HS-PSS [2]
  % inhibition: 42.7%
YST-1 [3]
  % inhibition: 77.8%
HS-Sch-2 [4]
  % inhibition: 32%
HS-PSS [5]
  drug sensitivity score: 4.81
YST-1 [6]
  drug sensitivity score: 14.4
HS-Sch-2 [7]
  drug sensitivity score: 3.35

## C[C@@H](Oc1cc(-n2cnc3ccc(CN4CCN(C)CC4)cc32)sc1C(N)=O)c1ccccc1C(F)(F)F (max concentration tested 10000 nM)
HS-PSS [1]
  drug sensitivity score: 5.06
HS-PSS [2]
  % inhibition: 101%
YST-1 [3]
  % inhibition: 86.8%
HS-Sch-2 [4]
  % inhibition: 99.8%
HS-PSS [5]
  drug sensitivity score: 14.6
YST-1 [6]
  drug sensitivity score: 27.3
HS-Sch-2 [7]
  drug sensitivity score: 34.6

## Cc1c(NC(=O)OC[C@@H]2COCCN2)cn2ncnc(Nc3ccc4c(cnn4Cc4cccc(F)c4)c3)c12 (max concentration tested 10000 nM)
HS-PSS [1]
  drug sensitivity score: 0.6
HS-PSS [2]
  % inhibition: 71.3%
YST-1 [3]
  % inhibition: 26.8%
HS-Sch-2 [4]
  % inhibition: 44.4%
HS-PSS [5]
  drug sensitivity score: 5.43
YST-1 [6]
  drug sensitivity score: 2.68
HS-Sch-2 [7]
  drug sensitivity score: 3.4

## Cc1nc(Nc2n[nH]c3c2CN(C(=O)N[C@H](CN(C)C)c2ccccc2)C3(C)C)c2sccc2n1 (max concentration tested 10000 nM)
HS-PSS [1]
  drug sensitivity score: 10.6
HS-PSS [2]
  % inhibition: 86.4%
YST-1 [3]
  % inhibition: 101%
HS-Sch-2 [4]
  % inhibition: 101%
HS-PSS [5]
  drug sensitivity score: 27.9
YST-1 [6]
  drug sensitivity score: 24.2
HS-Sch-2 [7]
  drug sensitivity score: 15.4

## Cn1cc(-c2ccc3nnc(C(F)(F)c4ccc5ncccc5c4)n3n2)cn1 (max concentration tested 10000 nM)
HS-PSS [1]
  drug sensitivity score: 0
HS-PSS [2]
  % inhibition: 17.4%
YST-1 [3]
  % inhibition: 18.4%
HS-Sch-2 [4]
  % inhibition: 11.5%
HS-PSS [5]
  drug sensitivity score: 1.21
YST-1 [6]
  drug sensitivity score: 0.54
HS-Sch-2 [7]
  drug sensitivity score: 0.05

## Cn1cc(C2=Nc3cc(NC(=O)C(N)C4CCCCC4)cc4c3C2=CNNC4=O)cn1 (stereo not drawn) (max concentration tested 10000 nM)
HS-PSS [1]
  drug sensitivity score: 0
HS-PSS [2]
  % inhibition: 43.5%
YST-1 [3]
  % inhibition: 51.3%
HS-Sch-2 [4]
  % inhibition: 84.3%
HS-PSS [5]
  drug sensitivity score: 8.91
YST-1 [6]
  drug sensitivity score: 14.8
HS-Sch-2 [7]
  drug sensitivity score: 22.7

## NC[C@@](O)(c1ccc(Cl)cc1)c1ccc(-c2cn[nH]c2)cc1 (max concentration tested 10000 nM)
HS-PSS [1]
  drug sensitivity score: 6.26
HS-PSS [2]
  % inhibition: 97.9%
YST-1 [3]
  % inhibition: 73.8%
HS-Sch-2 [4]
  % inhibition: 91.8%
HS-PSS [5]
  drug sensitivity score: 7.75
YST-1 [6]
  drug sensitivity score: 4.33
HS-Sch-2 [7]
  drug sensitivity score: 8.76

## O=C(NC[C@H](O)CN1CCc2ccccc2C1)c1cc(NC2COC2)ncn1 (max concentration tested 10000 nM)
HS-PSS [1]
  drug sensitivity score: 0
HS-PSS [2]
  % inhibition: 17.6%
YST-1 [3]
  % inhibition: 14.1%
HS-Sch-2 [4]
  % inhibition: 10.7%
HS-PSS [5]
  drug sensitivity score: 0.24
YST-1 [6]
  drug sensitivity score: 0.06
HS-Sch-2 [7]
  drug sensitivity score: 0.29

## O=C(NOCC1CC1)c1ccc(F)c(F)c1Nc1ccc(I)cc1Cl (max concentration tested 10000 nM)
HS-PSS [1]
  drug sensitivity score: 0
HS-PSS [2]
  % inhibition: 21.5%
YST-1 [3]
  % inhibition: 24.6%
HS-Sch-2 [4]
  % inhibition: 55.9%
HS-PSS [5]
  drug sensitivity score: 0.51
YST-1 [6]
  drug sensitivity score: 1.6
HS-Sch-2 [7]
  drug sensitivity score: 5.05

## O=C(O)c1ccc(CN2CCC(CN[C@@H]3C[C@H]3c3ccccc3)CC2)cc1 (max concentration tested 10000 nM)
HS-PSS [1]
  drug sensitivity score: 0
HS-PSS [2]
  % inhibition: 2.06%
YST-1 [3]
  % inhibition: -3.86%
HS-Sch-2 [4]
  % inhibition: -4.91%
HS-PSS [5]
  drug sensitivity score: 0
YST-1 [6]
  drug sensitivity score: 0
HS-Sch-2 [7]
  drug sensitivity score: 0

## O=C1NC(=O)/C(=C/c2ccc3nccc(-c4ccncc4)c3c2)S1 (max concentration tested 10000 nM)
HS-PSS [1]
  drug sensitivity score: 0
HS-PSS [2]
  % inhibition: 49.6%
YST-1 [3]
  % inhibition: 86.6%
HS-Sch-2 [4]
  % inhibition: 37.8%
HS-PSS [5]
  drug sensitivity score: 2.69
YST-1 [6]
  drug sensitivity score: 9.37
HS-Sch-2 [7]
  drug sensitivity score: 1.71

## O=c1[nH]c(C2CCCN2)nc2c1oc1ccc(Cl)cc12 (stereo not drawn) (max concentration tested 10000 nM)
HS-PSS [1]
  drug sensitivity score: 0
HS-PSS [2]
  % inhibition: 33.3%
YST-1 [3]
  % inhibition: 63.8%
HS-Sch-2 [4]
  % inhibition: 19.3%
HS-PSS [5]
  drug sensitivity score: 2.86
YST-1 [6]
  drug sensitivity score: 6.83
HS-Sch-2 [7]
  drug sensitivity score: 2.7

## NCC(=O)Nc1ccc(-n2nc(C(F)(F)F)cc2-c2ccc3c(ccc4ccccc43)c2)cc1 (max concentration tested 25000 nM)
HS-PSS [1]
  drug sensitivity score: 7.95
HS-PSS [2]
  % inhibition: 101%
YST-1 [3]
  % inhibition: 101%
HS-Sch-2 [4]
  % inhibition: 101%
HS-PSS [5]
  drug sensitivity score: 4.86
YST-1 [6]
  drug sensitivity score: 5.55
HS-Sch-2 [7]
  drug sensitivity score: 7.03
